Assay results from ChEMBL document CHEMBL3885861, “Open TG-GATES”.

Species on record: Rattus norvegicus
Experiment: Open TG-GATES - Regimen: Daily Repeat
Assay type: toxicity, organism-based, Sprague-Dawley
Set-up: regimen Daily Repeat, gender Male, age 6 weeks
Details: in vivo, po, route gavage; for Bas / Eos / Fbg / Ht / Lym / MCHC / MCV / Mono / PT / Plat / RBC / Ret / WBC / Neu: tissue Blood; for KIDNEY_L / KIDNEY_R / KIDNEY_TOTAL: tissue Kidney; for ALT / AST / CRE / Ca / DBIL / GLC / IP / K / LDH / Na / PL / RALB / TBIL / TC / TG / TP / gamma-GTP / BUN / Cl: tissue Plasma
[1] = 0 mg/kg, 72 h, dose level Control, time 3 day
[2] = 0 mg/kg, […], dose level Control, time 7 day
[3] = 0 mg/kg, […], dose level Control, time 14 day
[4] = 0 mg/kg, […], dose level Control, time 28 day
[5] = 80 mg/kg, 72 h, dose level Low, time 3 day
[6] = 80 mg/kg, […], dose level Low, time 7 day
[7] = 80 mg/kg, […], dose level Low, time 14 day
[8] = 80 mg/kg, […], dose level Low, time 28 day

## COc1ccc([C@@H]2Sc3ccccc3N(CCN(C)C)C(=O)[C@@H]2OC(C)=O)cc1 [DILTIAZEM]
[1]
  TERMINAL_BW: 215.4 g
  Bas: 0.2%
  Eos: 1%
  Fbg: 262.2 mg/dL
  Ht: 41.3%
  Lym: 74.6%
  MCHC: 32.7%
  MCV: 67.4 fL
  Mono: 3.4%
  PT: 14.3 s
  Plat: 126.4 x10_4/uL
  RBC: 613.4 x10_4/ul
  Ret: 8.9%
  WBC: 101.8 x10_2/uL
  KIDNEY_L: 1 g
  KIDNEY_R: 1 g
  KIDNEY_TOTAL: 1.9 g
  ALT: 45.8 IU/L
  AST: 76.8 IU/L
  CRE: 0.2 mg/dL
  Ca: 11.2 mg/dL
  DBIL: 0.016 mg/dL
  GLC: 177.4 mg/dL
  IP: 7.6 mg/dL
  K: 4 meq/L
  LDH: 97 IU/L
  Na: 143.8 meq/L
  PL: 151.2 mg/dL
  RALB: 2.7 g/dL
  TBIL: 0.032 mg/dL
  TC: 79.6 mg/dL
  TG: 86 mg/dL
  TP: 5.5 g/dL
  gamma-GTP: 1.2 IU/L
[2]
  TERMINAL_BW: 250.6 g
  Bas: 0%
  Eos: 0.8%
  Fbg: 297.6 mg/dL
  Ht: 41.8%
  Lym: 77%
  MCHC: 33.1%
  MCV: 64.6 fL
  Mono: 2.8%
  Neu: 18.4%
  PT: 14.2 s
  Plat: 137.2 x10_4/uL
  RBC: 648 x10_4/ul
  Ret: 6.7%
  WBC: 91.7 x10_2/uL
  KIDNEY_L: 1.1 g
  KIDNEY_R: 1 g
  KIDNEY_TOTAL: 2.1 g
  ALT: 45.4 IU/L
  AST: 72.6 IU/L
  BUN: 14.8 mg/dL
  CRE: 0.2 mg/dL
  Ca: 11.1 mg/dL
  Cl: 106.4 meq/L
  DBIL: 0.014 mg/dL
  GLC: 187.8 mg/dL
  IP: 7.6 mg/dL
  K: 4.3 meq/L
  LDH: 84 IU/L
  Na: 143.8 meq/L
  PL: 162.4 mg/dL
  RALB: 2.8 g/dL
  TBIL: 0.018 mg/dL
  TC: 82.8 mg/dL
  TG: 112.6 mg/dL
  TP: 5.8 g/dL
  gamma-GTP: 1 IU/L
[3]
  TERMINAL_BW: 321.8 g
  Bas: 0.4%
  Eos: 0.6%
  Fbg: 290.8 mg/dL
  Ht: 44%
  Lym: 82.2%
  MCHC: 33.2%
  MCV: 62.3 fL
  Mono: 2.2%
  Neu: 14%
  PT: 14.1 s
  Plat: 141.2 x10_4/uL
  RBC: 706.2 x10_4/ul
  Ret: 5.2%
  KIDNEY_L: 1.3 g
  KIDNEY_R: 1.3 g
  KIDNEY_TOTAL: 2.6 g
  ALT: 39 IU/L
  AST: 65.6 IU/L
  BUN: 16 mg/dL
  CRE: 0.2 mg/dL
  Ca: 10.8 mg/dL
  Cl: 105.6 meq/L
  DBIL: 0.018 mg/dL
  GLC: 189 mg/dL
  IP: 6.9 mg/dL
  K: 4.1 meq/L
  LDH: 92.8 IU/L
  Na: 144 meq/L
  PL: 160.4 mg/dL
  RALB: 2.8 g/dL
  TBIL: 0.02 mg/dL
  TC: 71.2 mg/dL
  TG: 180.4 mg/dL
  TP: 5.8 g/dL
  gamma-GTP: 1 IU/L
[4]
  TERMINAL_BW: 411.3 g
  Bas: 0.4%
  Eos: 1%
  Fbg: 302.8 mg/dL
  Ht: 45.8%
  Lym: 77%
  MCHC: 34.1%
  MCV: 57.2 fL
  Mono: 2.4%
  Neu: 18.8%
  PT: 14 s
  Plat: 112.6 x10_4/uL
  RBC: 801.4 x10_4/ul
  Ret: 2.5%
  WBC: 99.4 x10_2/uL
  KIDNEY_L: 1.5 g
  KIDNEY_R: 1.5 g
  KIDNEY_TOTAL: 3 g
  ALT: 37.2 IU/L
  AST: 66 IU/L
  BUN: 16.8 mg/dL
  CRE: 0.3 mg/dL
  Ca: 11.1 mg/dL
  Cl: 108 meq/L
  DBIL: 0.014 mg/dL
  GLC: 198.8 mg/dL
  IP: 6.8 mg/dL
  K: 3.7 meq/L
  LDH: 63.4 IU/L
  Na: 146.4 meq/L
  PL: 160.2 mg/dL
  RALB: 2.9 g/dL
  TBIL: 0.028 mg/dL
  TC: 79.4 mg/dL
  TG: 125.2 mg/dL
  TP: 6.2 g/dL
  gamma-GTP: 1.2 IU/L
[5]
  TERMINAL_BW: 214.1 g
  Bas: 0%
  Eos: 0.8%
  Fbg: 270 mg/dL
  Ht: 39.8%
  Lym: 72.2%
  MCHC: 32.8%
  MCV: 64.2 fL
  Mono: 2.8%
  Neu: 23.2%
  PT: 13.8 s
  Plat: 118.7 x10_4/uL
  RBC: 621.2 x10_4/ul
  Ret: 8.5%
  KIDNEY_L: 0.9 g
  KIDNEY_R: 1 g
  KIDNEY_TOTAL: 1.9 g
  ALT: 48.6 IU/L
  AST: 68.2 IU/L
  CRE: 0.2 mg/dL
  Ca: 11.1 mg/dL
  DBIL: 0.02 mg/dL
  GLC: 178 mg/dL
  IP: 7.4 mg/dL
  K: 4 meq/L
  LDH: 78.4 IU/L
  Na: 143.8 meq/L
  PL: 161.2 mg/dL
  RALB: 2.6 g/dL
  TBIL: 0.026 mg/dL
  TC: 86.4 mg/dL
  TG: 128.8 mg/dL
  TP: 5.5 g/dL
  gamma-GTP: 1.2 IU/L
[6]
  TERMINAL_BW: 255.5 g
  Bas: 0%
  Eos: 1%
  Fbg: 295 mg/dL
  Ht: 41.2%
  Lym: 77.4%
  MCHC: 33.2%
  MCV: 65.1 fL
  Mono: 2.6%
  Neu: 17.8%
  PT: 14.2 s
  Plat: 132.9 x10_4/uL
  RBC: 632 x10_4/ul
  Ret: 7.5%
  WBC: 77.3 x10_2/uL
  KIDNEY_L: 1.1 g
  KIDNEY_R: 1.1 g
  KIDNEY_TOTAL: 2.2 g
  ALT: 43.2 IU/L
  AST: 68.6 IU/L
  BUN: 15.4 mg/dL
  CRE: 0.2 mg/dL
  Ca: 11.2 mg/dL
  DBIL: 0.014 mg/dL
  GLC: 192.4 mg/dL
  IP: 8.3 mg/dL
  K: 4 meq/L
  LDH: 83.4 IU/L
  Na: 143.6 meq/L
  PL: 153.2 mg/dL
  RALB: 2.8 g/dL
  TBIL: 0.02 mg/dL
  TC: 81.2 mg/dL
  TG: 109.2 mg/dL
  TP: 5.8 g/dL
  gamma-GTP: 1 IU/L
[7]
  TERMINAL_BW: 315.7 g
  Bas: 0.4%
  Eos: 0.6%
  Fbg: 311.2 mg/dL
  Ht: 44.4%
  Lym: 80.2%
  MCHC: 32.9%
  MCV: 63.6 fL
  Mono: 2.4%
  PT: 13.8 s
  Plat: 139.6 x10_4/uL
  RBC: 698.8 x10_4/ul
  Ret: 5%
  WBC: 116 x10_2/uL
  KIDNEY_L: 1.3 g
  KIDNEY_R: 1.3 g
  KIDNEY_TOTAL: 2.6 g
  ALT: 45 IU/L
  AST: 70.4 IU/L
  BUN: 16.2 mg/dL
  CRE: 0.2 mg/dL
  Ca: 10.9 mg/dL
  Cl: 105.8 meq/L
  DBIL: 0.016 mg/dL
  GLC: 184.8 mg/dL
  IP: 7 mg/dL
  K: 4.2 meq/L
  LDH: 99.2 IU/L
  Na: 144.6 meq/L
  PL: 171.8 mg/dL
  RALB: 2.8 g/dL
  TBIL: 0.018 mg/dL
  TC: 81.8 mg/dL
  TG: 169.6 mg/dL
  TP: 6 g/dL
  gamma-GTP: 1.2 IU/L
[8]
  TERMINAL_BW: 415.5 g
  Bas: 0.2%
  Eos: 1.2%
  Fbg: 313.4 mg/dL
  Ht: 46.4%
  Lym: 77.4%
  MCHC: 33.9%
  MCV: 57.8 fL
  Mono: 2.2%
  Neu: 18.4%
  PT: 14 s
  Plat: 111.5 x10_4/uL
  RBC: 803.2 x10_4/ul
  Ret: 2.5%
  KIDNEY_L: 1.4 g
  KIDNEY_R: 1.4 g
  KIDNEY_TOTAL: 2.8 g
  ALT: 40.8 IU/L
  AST: 70.4 IU/L
  BUN: 17.6 mg/dL
  CRE: 0.2 mg/dL
  Ca: 11.1 mg/dL
  Cl: 108.4 meq/L
  DBIL: 0.016 mg/dL
  GLC: 202.8 mg/dL
  IP: 6.6 mg/dL
  K: 3.8 meq/L
  LDH: 65 IU/L
  Na: 146.6 meq/L
  PL: 161.8 mg/dL
  RALB: 2.9 g/dL
  TBIL: 0.016 mg/dL
  TC: 79.2 mg/dL
  TG: 147.4 mg/dL
  TP: 6.5 g/dL
  gamma-GTP: 1 IU/L
240 mg/kg, 72 h, dose level Middle, time 3 day
  TERMINAL_BW: 216.9 g
